According to US10668000B2, “Peptides, compositions comprising them and uses in particular cosmetic uses” (SEDERMA, priority 2014, dated 2020):
Where two headings read alike, the source gives them in different places. Where a SMILES comes first, the peptide text is derived from it. The star is where a group is joined. Myristoyl = CCCCCCCCCCCCCC(=O)*

What was measured:
Collagen I [1] = experiment: Immunofluorescence dosage of collagen I in normal human fibroblasts; format: cell-based; settings: NHF, 6 days
Method: (§1) Normal human fibroblasts (NHF) are cultured for 24 h. The cells are contacted or not with the products to be tested or their excipient at various concentrations for 6 days for the collagen I or 14 days for elastin (DMEMc 5% FCS). The synthesis of collagen I and elastin produced by the cells in the form of extracellular matrix is then quantified by immuno-marking on the fixed layers. A counting of the nuclei labeled with Hoechst is performed in parallel in order to have an estimate of the viability and in order to weight the data.

Collagen I [2] = experiment: ELISA assay of collagen I synthesis in normal human fibroblasts; format: cell-based; settings: NHF, 72 h
Method: (§2) Normal human fibroblasts (NHF) in culture are contacted with the products to be tested or their excipient (negative control) for 72 h. After the contact, the culture supernatants are removed and the synthesis of dermal macromolecules are estimated by ELISA assays. An estimation of cell viability is performed by Hoechst assay and used to weight the obtained data.

filaggrin 1 = experiment: Filaggrin 1 immunolabeling in keratinocytes; format: cell-based, human; settings: for Filagrin 1 % variation: immunolabeling, human keratinocytes
Source text: (§3) Human keratinocytes are brought to just confluence in KSFMc medium. The contact with the actives and therefore their evaluation is then done in KSFMc medium alone or with calcium (0.8 mm)*. Visual evaluation of differentiation takes place after several days of contact (2, 4, 8 days/3, 5 and 7 for example). * Calcium differentiation allows the creation of link structure between the cells which leads to a better attachment of the basal layers.
(§4) On the same cultures as those presented before, immunolabeling of filaggrin 1 and ceramides are realised on layers fixed with specific antibodies. Quantification by image analysis is used to estimate the synthesis of these targets in keratinocytes. A counter-colouration of the nucleus using Hoechst dye is used to weight the obtained data.

Elastin [3] = experiment: Immunofluorescence dosage of elastin in normal human fibroblasts; format: cell-based; settings: NHF, 14 days
Method: as §1

Fibronectin = experiment: ELISA assay of fibronectin synthesis in normal human fibroblasts; format: cell-based; settings: NHF, 72 h
Method: as §2

Laminin = experiment: ELISA assay of laminin synthesis in normal human fibroblasts; format: cell-based; settings: NHF, 72 h
Method: as §2

neutral lipids = experiment: Marking of neutral lipids with red oil in keratinocytes; format: cell-based, human; settings: for Neutral lipids % variation: red oil marking, human keratinocytes
Source text: as §3
On the same cultures as presented before, a marking of neutral lipids with red oil is realised on the fixed layers. Quantification by image analysis is used to estimate lipid synthesis in keratinocytes. A counter-colouration of the nucleus using Hoechst dye is used to weight the obtained data.

Elastin [4] = experiment: ELISA assay of elastin synthesis in normal human fibroblasts; format: cell-based; settings: NHF, 72 h
Method: as §2

Collagen IV = experiment: ELISA assay of collagen IV synthesis in normal human fibroblasts; format: cell-based; settings: NHF, 72 h
Method: as §2

Ceramide 2 = Ceramide 2 immunolabeling in keratinocytes; format: cell-based, human; settings: for Ceramide 2 % variation: immunolabeling, human keratinocytes
Source text: as §3, §4

collagen = settings: cited from earlier work
[5] = at the level of the differentiation networks

Compound: CCCCCCCCCCCCCC(=O)N1CCC[C@H]1C(=O)N1CCC[C@H]1C(=O)N[C@@H](CC(C)C)C(=O)O [Myr-PPL-OH, myristoyl-prolyl-prolyl-leucine] (Myristoyl-Pro-Pro-Leu-OH)
- Collagen I % change/control (Collagen I [1]; 3 ppm): +68%
- Collagen I % change/control (Collagen I [1]; 7 ppm): +95%
- Collagen I % change/control (Collagen I [2]; 1 ppm): +34%
- Collagen I % change/control (Collagen I [2]; 3 ppm): +59%
- Collagen I % change/control (Collagen I [2]; 5 ppm): +87%
- Filagrin 1 % variation (filaggrin 1; 2 ppm): +564 (p < 0.01) %
- Filagrin 1 % variation (filaggrin 1; 4 ppm): +840 (p < 0.01) %
- Filagrin 1 % variation (filaggrin 1; 6 ppm): +172 (p < 0.01) %
- filaggrin 1 in the human keratinocytes (filaggrin 1; [5]): increases
- Elastin % change/control (Elastin [3]; 2 ppm): +183%
- Elastin % change/control (Elastin [3]; 3 ppm): +259%
- Elastin % change/control (Elastin [3]; 7 ppm): +145%
- Fibronectin % change/control (Fibronectin; 3 ppm): +73%
- Fibronectin % change/control (Fibronectin; 5 ppm): +41%
- Fibronectin % change/control (Fibronectin; 7 ppm): +66%
- Laminin % change/control (Laminin; 1 ppm): +29%
- Laminin % change/control (Laminin; 3 ppm): +83%
- Laminin % change/control (Laminin; 5 ppm): +53%
- Laminin % change/control (Laminin; 7 ppm): +41%
- Neutral lipids % variation (neutral lipids; 4 ppm): +394 (p < 0.01) %
- Neutral lipids % variation (neutral lipids; 6 ppm): +570 (p < 0.01) %
- neutral lipids in the human keratinocytes (neutral lipids; [5]): increases
- Elastin % change/control (Elastin [4]; 5 ppm): +86%
- Elastin % change/control (Elastin [4]; 7 ppm): +137%
- Collagen IV % change/control (Collagen IV; 1 ppm): +38%
- Collagen IV % change/control (Collagen IV; 3 ppm): +51%
- Collagen IV % change/control (Collagen IV; 5 ppm): +83%
- Collagen IV % change/control (Collagen IV; 7 ppm): +159%
- Ceramide 2 % variation (Ceramide 2; 2 ppm): +137 (nsd) %
- Ceramide 2 % variation (Ceramide 2; 4 ppm): +240 (p < 0.01) %
- Ceramide 2 % variation (Ceramide 2; 6 ppm): +268 (p < 0.01) %
- ceramides in the human keratinocytes (Ceramide 2; [5]): increases

Compound: Asn-Ile-Pro-Pro-Leu (NIPPL) [pentapeptide of WO 2010/071132 derived from fermented milk]
- collagen production by fibroblastes with regard to the control (collagen; concentration of about 55 ppm): about +30%

Compound: Ile-Pro-Pro-Leu (IPPL) [tetrapeptide of WO 2010/071132 derived from fermented milk]
- collagen production by fibroblastes with regard to the control (collagen; concentration of about 44 ppm): about +10%
